Laboratory results taken from article PMC3829422, “Conformational Plasticity and Ligand Binding of Bacterial Monoacylglycerol Lipase” (The Journal of Biological Chemistry, 2013).
Where a chain is given by its changes, count along the chain named.

How the values were obtained:
Assay in all cases: X-ray crystal structure, […] A
Type in all cases: binding
bMGL [1] = molecular target: T1, bMGL (Bacillus sp. H-257, UniProt P82597, D196N); conditions: inactive variant; co-crystallised and soaked; HEPES pH 6.9; active site, chain A only; noncovalent
T1 construct: cap Asn-120-Thr-164; catalytic triad Ser-97, Asp-196, His-226
T1 sequence (P82597 1-250 D196N): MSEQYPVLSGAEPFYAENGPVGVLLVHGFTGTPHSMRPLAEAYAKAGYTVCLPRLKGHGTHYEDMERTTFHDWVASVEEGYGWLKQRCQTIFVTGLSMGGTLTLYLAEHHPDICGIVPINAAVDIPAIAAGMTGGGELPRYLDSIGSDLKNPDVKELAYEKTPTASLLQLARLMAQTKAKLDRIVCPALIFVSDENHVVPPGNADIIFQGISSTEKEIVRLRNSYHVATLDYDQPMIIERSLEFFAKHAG

bMGL [2] = molecular target: T2, bMGL (Bacillus sp. H-257, UniProt P82597); conditions: covalent; Ser-97 phosphonate adduct, 4-nitrophenol released; MES/imidazole pH 6.5
T2 construct: cap Asn-120-Thr-164; catalytic triad Ser-97, Asp-196, His-226
T2 sequence (P82597 1-250): T1 sequence (P82597 1-250 D196N) with N196D

bMGL [3] = molecular target: T2, bMGL; conditions: covalent; Ser-97 phosphonate adduct, 4-nitrophenol released; citric acid pH 5.2
bMGL [4] = molecular target: T2, bMGL; conditions: covalent; Ser-97 phosphonate adduct, 4-nitrophenol released; citric acid pH 5.0

CCCCCCCCCCCC(=O)OCC(O)CO (racemic) [1-LG, 1-lauroylglycerol]
X-ray crystal structure, 2.8 A (bMGL [1]): we only interpreted the electron density of the bMGL(D196N)-1-LG crystal in chain A as substrate

CCCCCCCCCCCCOP(=O)(CCCN=[N+]=[N-])Oc1ccc([N+](=O)[O-])cc1 (stereo not shown) [C12 ligand, dodecyl 4-nitrophenyl (3-azidopropyl)phosphonate]
X-ray crystal structure, 1.7 A (bMGL [2]): both had the C12 ligand covalently bound in the active site

CCCCCCCCCCCCCCOP(=O)(CCCN=[N+]=[N-])Oc1ccc([N+](=O)[O-])cc1 (stereo not shown) [C14 ligand]
X-ray crystal structure, 1.85 A (bMGL [3]): electron densities for the ligands bound to active site residue Ser-97 were observed

CCCCCCCCCCCCCCCCOP(=O)(CCCN=[N+]=[N-])Oc1ccc([N+](=O)[O-])cc1 (stereo not shown) [C16 ligand]
X-ray crystal structure, 2.2 A (bMGL [4]): electron densities for the ligands bound to active site residue Ser-97 were observed
